Laboratory results from BindingDB's records for doi:10.1016/s0960-894x(01)00635-7 (Instituto De Química Médica (Csic), 2001).

Test: The compound was evaluated for inhibition of HIV-1 mutant […] recombinant reverse transcriptase

Cc1cn([C@H]2C[C@H](O[Si](C)(C)C(C)(C)C)[C@@H](CO[Si](C)(C)C(C)(C)C)O2)c(=O)n(CC(=O)O)c1=O and Cc1cn(C2OC(CO[Si](C)(C)C(C)(C)C)CC2O[Si](C)(C)C(C)(C)C)c(=O)n(CC(=O)O)c1=O (stereo unspecified) [{3-[3-(tert-Butyl-dimethyl-silanyloxy)-5-(tert-butyl-dimethyl-silanyloxymethyl)-tetrahydro-furan-2-yl]-5-methyl-2,6-dioxo-3,6-dihydro-2H-pyrimidin-1-yl}-acetic acid] are within 1.5-fold of each other in EC50: 5 µM for the first, 4.5 µM for the second.

First: Cc1cn([C@@H]2O[C@H](CO[Si](C)(C)C(C)(C)C)[C@@H](O)[C@H]2O[Si](C)(C)C(C)(C)C)c(=O)n(CC(=O)O)c1=O
Second: Cc1cn([C@@H]2O[C@H](CO[Si](C)(C)C(C)(C)C)[C@@H](O[Si](C)(C)C(C)(C)C)[C@H]2O[Si](C)(C)C(C)(C)C)c(=O)n(CC(=O)O)c1=O
The EC50 of the first is 7.1-fold lower: 4.5 µM for the first, 32 µM for the second.

First: Cc1cn(C2CCC(CO[Si](C)(C)C(C)(C)C)O2)c(=O)n(CC(=O)OCc2ccccc2)c1=O (stereo unspecified)
Second: Cc1cn([C@@H]2O[C@H](CO)[C@@H](O)[C@H]2O[Si](C)(C)C(C)(C)C)c(=O)n(CC(=O)OCc2ccccc2)c1=O
The EC50 of the first is higher: > 250 µM for the first, 4 µM for the second.

Going from Cc1cn(C2O[C@H](CO[Si](C)(C)C(C)(C)C)[C@@H](O)[C@H]2O)c(=O)n(CC(=O)O)c1=O (stereo partly specified) to Cc1cn([C@@H]2O[C@H](CO)[C@@H](O)[C@H]2O[Si](C)(C)C(C)(C)C)c(=O)n(CC(=O)O)c1=O, the EC50 falls from 117 µM to 20 µM (5.8-fold). The second is the more potent here.

Cc1cn([C@@H]2O[C@H](CO[Si](C)(C)C(C)(C)C)[C@@H](O[Si](C)(C)C(C)(C)C)[C@H]2O[Si](C)(C)C(C)(C)C)c(=O)n(CC(=O)OCc2ccccc2)c1=O and Cc1cn([C@@H]2O[C@H](CO[Si](C)(C)C(C)(C)C)[C@@H](O[Si](C)(C)C(C)(C)C)[C@H]2O)c(=O)n(CC(=O)OCc2ccccc2)c1=O cannot be ordered by EC50: > 10 µM for the first, > 50 µM for the second.

Test: Effective concentration required to inhibit HIV-1 induced cytopathicity by 50% in CEM cells

With Cc1cn([C@@H]2O[C@H](CO[Si](C)(C)C(C)(C)C)[C@@H](O[Si](C)(C)C(C)(C)C)[C@H]2O)c(=O)n(CC(=O)O)c1=O [{3-[4-(tert-Butyl-dimethyl-silanyloxy)-5-(tert-butyl-dimethyl-silanyloxymethyl)-3-hydroxy-tetrahydro-furan-2-yl]-5-methyl-2,6-dioxo-3,6-dihydro-2H-pyrimidin-1-yl}-acetic acid] the EC50 was 1.8 µM.
